Here are results for 42 compounds from ChEMBL document CHEMBL5370626, “Targeting the Subpocket Enables the Discovery of Thiadiazole-Pyridazine Derivatives as Glutaminase C Inhibitors” (ACS Med Chem Lett, 2023).

Calls of active or inactive are those of the source. The calls are words filed in the database; no cut-off is given here. Where only a bound is given, the exact number is not on record here.

Broadly, the EC50 is the midpoint of the concentration-response curve. What is called IC50 is the point on the concentration scale where inhibition reaches its midpoint.

The nature of experiment [1]: (§1) Inhibition of human recombinant GAC K320A mutant (73 to 598 residues ) expressed in Escherichia coli BL21 (DE3) cells incubated for 10 mins by fluorometric assay.
Experiment [2] deals with A549. Description: Antiproliferative activity against human A549 cells assessed as reduction in cell viability incubated for 72 hrs by Celltiter-glo assay. It is filed as functional, cell-based. As to conditions: A549, 72 h. (In ATP-based viability assays light output follows the ATP content of the culture.)
Experiment [3] has as its system A549. Description: Antitumor activity against human A549 cells xenografted in Balb/c nude mouse assessed as tumor growth inhibition at 100 mg/kg, po administered once daily 24 days relative to control. It is filed as functional. Conditions: A549, 576 h, time 24 day, read-out: TGI.
The subject of experiment [4] is A549. Description: Inhibition of colony formation in human A549 cells assessed as reduction of colony number measured after 4 days by crystal violet staining-based colony formation assay. It counts as functional, cell-based. As to conditions: dose 10-1000 nM, time 4.0 day.
In experiment [5] the target is T1, Glutaminase kidney isoform, mitochondrial (Homo sapiens) (UniProt O94925).
T1 sequence (whole entry): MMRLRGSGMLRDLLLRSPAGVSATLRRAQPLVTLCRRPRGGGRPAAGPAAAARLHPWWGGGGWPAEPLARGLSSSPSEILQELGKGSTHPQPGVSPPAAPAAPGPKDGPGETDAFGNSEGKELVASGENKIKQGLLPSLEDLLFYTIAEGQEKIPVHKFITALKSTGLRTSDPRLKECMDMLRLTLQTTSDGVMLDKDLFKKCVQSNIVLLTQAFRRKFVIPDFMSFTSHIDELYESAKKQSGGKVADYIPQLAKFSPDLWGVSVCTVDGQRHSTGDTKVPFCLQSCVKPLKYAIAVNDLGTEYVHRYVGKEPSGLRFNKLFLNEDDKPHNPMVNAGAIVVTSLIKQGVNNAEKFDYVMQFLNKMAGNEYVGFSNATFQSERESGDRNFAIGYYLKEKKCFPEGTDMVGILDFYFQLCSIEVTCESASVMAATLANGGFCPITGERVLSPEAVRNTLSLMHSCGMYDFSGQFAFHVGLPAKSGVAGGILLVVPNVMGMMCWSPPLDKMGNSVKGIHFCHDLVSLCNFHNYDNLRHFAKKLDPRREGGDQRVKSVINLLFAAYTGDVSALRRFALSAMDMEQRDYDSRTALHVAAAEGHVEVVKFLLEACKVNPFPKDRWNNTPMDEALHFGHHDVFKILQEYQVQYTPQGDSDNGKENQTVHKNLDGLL
Description: Inhibition of human GAC in A549 cells assessed as reduction in glutamate level at 100 to 1000 nM incubated for 16 hrs by colorimetric assay. It is filed as cell-based. As to conditions: dose 100-1000 nM.

Experiment [6] addresses T1, Glutaminase kidney isoform, mitochondrial (Homo sapiens). Description: Inhibition of human GAC in A549 cells assessed as induction of ROS level incubated for 16 hrs by DCFH-DA staining based flow cytometric analysis. It is filed as cell-based. As to conditions: dose 100-1000 nM. Background: A flow cytometer gives signals particle by particle.
Experiment [7] has the same target. Description: Inhibition of GAC (unknown origin).
The species entered for another experiment is Homo sapiens. The description is as §1.

For `CN(C)C(=O)COC(=O)c1cccc(CC(=O)Nc2nnc(N[C@@H]3CCN(c4cccnn4)C3)s2)c1`, in experiment [1], the EC50 was found to be 0.00315 µM. In addition, the IC50 in the experiment with A549 [2] is above 10 µM.
The matching figures for `O=C(Cc1ccc(CO)cc1)Nc1nnc(N[C@@H]2CCN(c3cccnn3)C2)s1`: 0.0124 µM and 1.71 µM.
Regarding `O=C(Cc1cccc(OC(F)(F)F)c1)Nc1ccc(CCCCc2nnc(NC(=O)Cc3ccccn3)s2)nn1` [TELAGLENASTAT], the EC50 in experiment [1] turned out to be 0.0164 µM. Further, the IC50 in the experiment with A549 [2] was found to be 0.0188 µM. Further, the inhibition in vivo at 100 mg/kg with A549 [3] is 34.5%.
With `O=C(Cc1cccc(C(=O)OCC2CC2)c1)Nc1nnc(N[C@@H]2CCN(c3cccnn3)C2)s1`, the EC50 in experiment [1] is 0.0129 µM. In the experiment on A549 [2], the IC50 stood at 0.0514 µM.
The matching figures for `O=C(Cc1cccnc1)Nc1nnc(N[C@@H]2CCN(c3cccnn3)C2)s1`: 0.00901 µM and 0.498 µM.
In the same order, the values of `O=C(Cc1ccccc1)Nc1nnc(N[C@@H]2CCN(c3cccnn3)C2)s1` are 0.00342 µM and 0.103 µM.
The matching figures for `COc1cccc(CC(=O)Nc2nnc(N[C@@H]3CCN(c4cccnn4)C3)s2)c1`: 0.00331 µM and 0.0604 µM.
`O=C(Cc1ccc2ccccc2c1)Nc1nnc(N[C@@H]2CCN(c3cccnn3)C2)s1`: the EC50 in experiment [1] was determined as 0.0261 µM. The IC50 in the experiment with A549 [2] came out at 0.37 µM.
The matching figures for `O=C(Cc1cccc(P(=O)(O)O)c1)Nc1nnc(N[C@@H]2CCN(c3cccnn3)C2)s1`: 0.00968 µM and above 10 µM.
The matching figures for `O=C(Cc1cccc(C(=O)NCCF)c1)Nc1nnc(N[C@@H]2CCN(c3cccnn3)C2)s1`: 0.00313 µM and 1.17 µM.
In the same order, the values of `CCOC(=O)c1cccc(CC(=O)Nc2nnc(N[C@@H]3CCN(c4cccnn4)C3)s2)c1` are 0.00268 µM and 0.103 µM.
Take `CCOP(=O)(OCC)c1cccc(CC(=O)Nc2nnc(N[C@@H]3CCN(c4cccnn4)C3)s2)c1`: the EC50 in experiment [1] stood at 0.00155 µM. Moreover, the IC50 in the experiment on A549 [2] is 0.889 µM.
The matching figures for `O=C(Nc1nnc(N[C@@H]2CCN(c3cccnn3)C2)s1)C1(c2ccccc2)CC1`: above 1 µM and 0.947 µM.
As to `NC(=O)c1cccc(CC(=O)Nc2nnc(N[C@@H]3CCN(c4cccnn4)C3)s2)c1`, in experiment [1], the EC50 is 0.00216 µM. In the experiment with A549 [2], the IC50 turned out to be 0.368 µM.
With `O=C(Cc1ccc(C(=O)O)cc1)Nc1nnc(N[C@@H]2CCN(c3cccnn3)C2)s1`, the EC50 in experiment [1] was found to be 0.0142 µM. For the same compound, in the experiment on A549 [2], the IC50 is 4.72 µM.
As to `CC(C)OC(=O)c1cccc(CC(=O)Nc2nnc(N[C@@H]3CCN(c4cccnn4)C3)s2)c1`, the EC50 in experiment [1] came out at 0.00403 µM. In addition, the IC50 in the experiment on A549 [2] was 0.00928 µM. Moreover, the inhibition result (with A549 [4]; in experiment [6]) was “Dose-Dependent Effect” each time. For the same compound, in experiment [5], the inhibition result was “Active”.
Turning to `O=C(Cc1cccc(C(=O)NC2CC(F)(F)C2)c1)Nc1nnc(N[C@@H]2CCN(c3cccnn3)C2)s1`, the EC50 in experiment [1] was 0.008 µM. In the experiment with A549 [2], the IC50 worked out at 1.07 µM.
With `O=C(Cc1cccc(Cc2ccccc2)c1)Nc1nnc(N[C@@H]2CCN(c3cccnn3)C2)s1`, the EC50 in experiment [1] came out at 0.0093 µM. Moreover, the IC50 with A549 [2] worked out at 0.0131 µM.
The matching figures for `CCOC(=O)OCOC(=O)c1cccc(CC(=O)Nc2nnc(N[C@@H]3CCN(c4cccnn4)C3)s2)c1`: 0.00374 µM and 1.01 µM.
In the same order, the values of `CO[C@H](C(=O)Nc1nnc(N[C@@H]2CCN(c3cccnn3)C2)s1)c1ccccc1` are 0.00325 µM and 0.0126 µM.
The matching figures for `CNC(=O)c1cccc(CC(=O)Nc2nnc(N[C@@H]3CCN(c4cccnn4)C3)s2)c1`: 0.00454 µM and 0.108 µM.
`CN(C)C(=O)c1cccc(CC(=O)Nc2nnc(N[C@@H]3CCN(c4cccnn4)C3)s2)c1`: the EC50 in experiment [1] came to 0.00536 µM. Further, in the experiment on A549 [2], the IC50 is 1.83 µM.
In the same order, the values of `O=C(CCc1ccccc1)Nc1nnc(N[C@@H]2CCN(c3cccnn3)C2)s1` are 0.0683 µM and 0.744 µM.
In the same order, the values of `COC(=O)c1cccc(CC(=O)Nc2nnc(N[C@@H]3CCN(c4cccnn4)C3)s2)c1` are 0.000793 µM and 0.0129 µM.
In the same order, the values of `Cc1ccccc1Oc1cccc(CC(=O)Nc2nnc(N[C@@H]3CCN(c4cccnn4)C3)s2)c1` are 0.0375 µM and 0.0371 µM.
For the compound `O=C(Cc1cccc(O)c1)Nc1nnc(N[C@@H]2CCN(c3cccnn3)C2)s1`, the EC50 in experiment [1] is 0.0017 µM. In the experiment with A549 [2], the IC50 is 1.08 µM.
In the case of `Cc1oc(=O)oc1COC(=O)c1cccc(CC(=O)Nc2nnc(N[C@@H]3CCN(c4cccnn4)C3)s2)c1`, the EC50 in experiment [1] came out at 0.0038 µM. The IC50 in the experiment on A549 [2] came to 5.47 µM.
In the same order, the values of `O=C(Cc1cccc(OC(F)(F)F)c1)Nc1nnc(N[C@@H]2CCN(c3cccnn3)C2)s1` are 0.0928 µM and 0.00126 µM.
As for `COC(=O)c1ccc(CC(=O)Nc2nnc(N[C@@H]3CCN(c4cccnn4)C3)s2)cc1`, in experiment [1], the EC50 is 0.00431 µM. Besides, the IC50 in the experiment with A549 [2] came to 0.0475 µM.
In the same order, the values of `O=C(Cc1cccc(C(F)(F)F)c1)Nc1nnc(N[C@@H]2CCN(c3cccnn3)C2)s1` are 0.00652 µM and 0.0604 µM.
The matching figures for `O=C(Cc1cccc(C(=O)OCC2CCC2)c1)Nc1nnc(N[C@@H]2CCN(c3cccnn3)C2)s1`: 0.00989 µM and 0.0138 µM.
Regarding `O=C(Cc1cccs1)Nc1nnc(N[C@@H]2CCN(c3cccnn3)C2)s1`, in experiment [1], the EC50 came out at 0.00518 µM. Besides, the IC50 with A549 [2] is 0.222 µM.
The matching figures for `CC(=O)OCOC(=O)c1cccc(CC(=O)Nc2nnc(N[C@@H]3CCN(c4cccnn4)C3)s2)c1`: 0.00356 µM and 1.09 µM.
For `O=C(Cc1cccc(C(=O)O)c1)Nc1nnc(N[C@@H]2CCN(c3cccnn3)C2)s1`, the INH in experiment [7] is 1.48 nM; in the experiment filed under Homo sapiens, 157 nM. Further, in experiment [1], the EC50 was found to be 0.00189 µM. Further, in the experiment with A549 [2], the IC50 stood at 0.732 µM.
Take `O=C(Cc1cccc(-c2nnn[nH]2)c1)Nc1nnc(N[C@@H]2CCN(c3cccnn3)C2)s1`: in experiment [1], the EC50 came out at 0.00366 µM. Besides, the IC50 with A549 [2] is above 10 µM.
As for `N#Cc1cccc(CC(=O)Nc2nnc(N[C@@H]3CCN(c4cccnn4)C3)s2)c1`, the EC50 in experiment [1] came to 0.0021 µM. In addition, the IC50 with A549 [2] is 0.736 µM.
As for `CS(=O)(=O)NC(=O)c1cccc(CC(=O)Nc2nnc(N[C@@H]3CCN(c4cccnn4)C3)s2)c1`, the half-maximal effective concentration (EC50) in experiment [1] amounted to 0.00263 µM. Further, the IC50 with A549 [2] was above 10 µM.
As to `CC1(C)OB(c2cccc(CC(=O)Nc3nnc(N[C@@H]4CCN(c5cccnn5)C4)s3)c2)OC1(C)C`, in experiment [1], the EC50 was 0.0082 µM. The IC50 in the experiment on A549 [2] turned out to be 1.26 µM.
The matching figures for `O=C(Cc1ccco1)Nc1nnc(N[C@@H]2CCN(c3cccnn3)C2)s1`: 0.00745 µM and 0.308 µM.
In the same order, the values of `O=C(Cc1cccc(B(O)O)c1)Nc1nnc(N[C@@H]2CCN(c3cccnn3)C2)s1` are 0.00567 µM and 1.18 µM.
The matching figures for `O=C(Cc1cccc(C(=O)NC2CCC(F)(F)CC2)c1)Nc1nnc(N[C@@H]2CCN(c3cccnn3)C2)s1`: 0.00426 µM and 1.06 µM.
Consider `O=C(Cc1cccc(F)c1)Nc1nnc(N[C@@H]2CCN(c3cccnn3)C2)s1`, for which the EC50 in experiment [1] came out at 0.00237 µM. In the experiment on A549 [2], the IC50 is 0.3 µM.
